Like-named read-outs stand apart in the source and are kept apart here.

As usually defined, the IC50 is the concentration at which inhibition is half-maximal. For orientation: inhibition means the relative decrease from the control value, in per cent.

Assay [1] relates to SK-OV-3, human ovarian carcinoma with intrinsic resistance to cisplatin. Put plainly: Antiproliferative activity, sulforhodamine-B (SRB) assay, SK-OV-3. It is filed as cell-based. To be noted: Homo sapiens, SK-OV-3, 72 h, read-out: Antiproliferative activity IC50, SK-OV-3. The method, then:
(§1) The SK-OV-3 ovarian cancer cell line, MCF-7 breast cancer line and HCT-116 colon cancer cell line were obtained from the National Cancer Institute, Biological Testing Branch (Frederick, MD, USA), and maintained in the logarithmic phase at 37 °C in a 5% CO2 humidified air in RPMI 1640 medium supplemented with 10% fetal calf serum, 2 mM glutamine, penicillin (100 U/mL) and streptomycin (0.1 mg/mL).
(§2) The growth inhibitory effects of compounds under investigation were compared to those of cisplatin (CDDP) and doxorubicin (DXR), used as positive controls, and evaluated by using the sulforhodamine-B (SRB) assay. Briefly, cells were seeded into 96-well microtiter plates in 100 µL of the appropriate culture medium at plating densities at 2500, 5000 and 8000 cells/well for MCF-7, HCT-116 and SKOV-3, respectively, depending upon the doubling time of individual cell lines. After seeding, microtiter plates were incubated at 37 °C for 24 h before adding the test compounds. After 24 h, several samples of each cell line were fixed in situ with cold trichloroacetic acid (TCA) to represent a measurement of the cell population at the time of compound addition. The test compounds were freshly dissolved in dimethyl sulfoxide (DMSO, 10^−2 M) and gradually diluted to different concentrations (0.79–50 µM) with a complete medium, so that the maximum DMSO/well ratio was 0.5% v/v. After the addition of different compound concentrations to triplicate wells, the plates were further incubated at 37 °C for 72 h. Cells were fixed in situ by the gentle addition of 50 µL of cold 50% w/v TCA (final concentration 10%) and incubated for 1 h at 4 °C. The supernatant was discarded, and the plates were washed with tap water and air-dried. SRB solution (100 µL) at 0.4% (w/v) in 1% acetic acid was added to each well, and the plates were incubated for 30 min at room temperature. After staining, the unbound dye was removed by washing with 1% acetic acid and the plates were air-dried. The bound stain was then solubilized with 10mM Trizma base and the absorbance was read on an automatic plate reader at 570 nm.
A general note: Sulforhodamine B stains cellular protein and so reports cell mass.

Assay [2] relates to HCT116, colon cancer cell line. The assay can be described thus: Antiproliferative activity, sulforhodamine-B (SRB) assay, HCT116. The class given is cell-based, human. The following applies: Homo sapiens, HCT-116; 72 h exposure; SRB assay; mean ± S.D.; >50 = less than 50% growth inhibition at 50 μM; read-out: Antiproliferative activity IC50, HCT116. The protocol: as §1, §2
Assay [3] has as its system MCF-7, human breast carcinoma cell. The assay can be described thus: Antiproliferative activity, sulforhodamine-B (SRB) assay, MCF-7. The class given is cell-based. To be noted: Homo sapiens, read-out: Antiproliferative activity IC50, MCF-7. The protocol: as §1, §2
In the next assay the target is T1, BChE from human serum (Homo sapiens, UniProt P06276).
T1 construct: ChEs (human recombinant AChE and BChE from human serum), purchased from Sigma Aldrich (Milan, Italy); purchased Sigma Aldrich (Milan, Italy); host or cells: human serum (natural source)
Put plainly: biochemical. To be noted: for hBChE % inhibition at 10 μM / inhibition at 10 µM: 10 μM concentration, mean ± S.D. (n = 3), n.i. = no inhibition at 10 μM; for inhibition at 10 µM: read-out: hBChE % inhibition at 10 μM. The method, then: (§3) Human isoforms of MAOs (from baculovirus-infected insect cells) and ChEs (human recombinant AChE and BChE from human serum), purchased from Sigma Aldrich (Milan, Italy), were used for inhibition assays. Experiments were performed in 96-well plates (Greiner Bio-One, Kremsmünster, Austria) on the Infinite M1000 Pro plate reader (Tecan, Cernusco s.N., Italy), using already published protocols.
(§4) The inhibition of human recombinant AChE or BChE from human serum was determined by applying Ellman’s spectrophotometric method as described in previously reported protocols. The AChE activity was determined in an assay solution containing AChE (0.09 U/mL), 5,5′-dithiobis(2-nitrobenzoic acid) (i.e., the Ellman’s reagent, 0.33 mM), the test compound (10 μM concentration, or seven scalar concentrations for compounds achieving > 60% enzyme inhibition at 10 μM), in 0.1 M PBS pH 8.0. […] The BChE inhibitory activity was similarly determined by using BChE (0.09 U/mL) and butyrylthiocholine iodide (5 μM) as the substrate.
(§5) The IC50 values, Michaelis–Menten curve fitting and inhibition constant (Ki) were calculated by nonlinear regression, using Prism software.

The target of the next assay is T2, human recombinant AChE (Homo sapiens, UniProt P22303).
T2 construct: purchased Sigma Aldrich (Milan, Italy)
The assay can be described thus: biochemical. To be noted: for inhibition at 10 µM: read-out: hAChE % inhibition at 10 μM. The protocol: as §3, §4, §5

Another assay concerns the target T3, human recombinant MAO B (Homo sapiens, UniProt P27338).
T3 construct: purchased Sigma Aldrich (Milan, Italy); host or cells: baculovirus-infected insect cells
T3 sequence (P27338 1-520): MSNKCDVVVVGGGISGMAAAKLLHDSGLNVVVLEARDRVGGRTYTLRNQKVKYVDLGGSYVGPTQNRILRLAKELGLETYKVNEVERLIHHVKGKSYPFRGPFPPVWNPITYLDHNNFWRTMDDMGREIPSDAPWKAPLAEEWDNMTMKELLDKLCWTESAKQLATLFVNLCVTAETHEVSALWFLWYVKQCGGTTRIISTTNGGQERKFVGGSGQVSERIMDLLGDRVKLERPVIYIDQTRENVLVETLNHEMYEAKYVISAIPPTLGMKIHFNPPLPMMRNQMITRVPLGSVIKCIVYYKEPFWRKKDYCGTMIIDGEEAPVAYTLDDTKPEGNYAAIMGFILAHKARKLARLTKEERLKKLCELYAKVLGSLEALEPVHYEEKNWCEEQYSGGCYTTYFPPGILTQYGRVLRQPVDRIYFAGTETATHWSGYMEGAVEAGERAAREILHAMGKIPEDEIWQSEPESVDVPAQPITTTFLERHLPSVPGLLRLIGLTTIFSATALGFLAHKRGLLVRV
The assay can be described thus: biochemical. The class given is biochemical. To be noted: for inhibition at 10 µM: read-out: hMAO-B % inhibition at 10 μM.

A further assay concerns the target T4, human recombinant MAO A (Homo sapiens, UniProt P21397).
T4 construct: purchased Sigma Aldrich (Milan, Italy); host or cells: baculovirus-infected insect cells
T4 sequence (P21397 1-527): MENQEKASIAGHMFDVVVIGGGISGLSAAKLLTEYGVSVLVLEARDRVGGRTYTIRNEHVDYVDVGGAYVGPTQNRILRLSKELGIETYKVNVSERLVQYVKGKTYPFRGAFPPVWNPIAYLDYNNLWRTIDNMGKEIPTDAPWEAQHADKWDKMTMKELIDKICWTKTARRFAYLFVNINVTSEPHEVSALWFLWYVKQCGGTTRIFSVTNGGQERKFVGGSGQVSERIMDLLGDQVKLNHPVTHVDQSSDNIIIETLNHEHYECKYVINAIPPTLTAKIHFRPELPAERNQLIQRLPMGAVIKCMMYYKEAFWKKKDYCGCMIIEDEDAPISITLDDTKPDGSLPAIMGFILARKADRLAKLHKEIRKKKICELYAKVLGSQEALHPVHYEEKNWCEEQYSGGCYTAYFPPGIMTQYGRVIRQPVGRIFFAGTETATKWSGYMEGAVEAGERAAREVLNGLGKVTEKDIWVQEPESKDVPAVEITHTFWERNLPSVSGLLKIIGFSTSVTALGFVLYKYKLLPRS
Put plainly: biochemical. The class given is biochemical. The following applies: for inhibition at 10 µM: read-out: hMAO-A % inhibition at 10 μM. The protocol: as §3
After the addition of human recombinant MAO A (250 U/mg) or MAO B (59 U/mg) and a further 30 min of incubation, NaOH was added, and the fluorescence read at 310/400 nm excitation/emission wavelength. […] IC50 is expressed as mean ± SD of three independent measurements, each one performed in duplicate. For the kinetic study on the inhibition mechanism of MAO B, three diverse scalar concentrations of the inhibitor and seven concentrations of kynuramine were used.
as §5

T2 sequence (P22303 32-614): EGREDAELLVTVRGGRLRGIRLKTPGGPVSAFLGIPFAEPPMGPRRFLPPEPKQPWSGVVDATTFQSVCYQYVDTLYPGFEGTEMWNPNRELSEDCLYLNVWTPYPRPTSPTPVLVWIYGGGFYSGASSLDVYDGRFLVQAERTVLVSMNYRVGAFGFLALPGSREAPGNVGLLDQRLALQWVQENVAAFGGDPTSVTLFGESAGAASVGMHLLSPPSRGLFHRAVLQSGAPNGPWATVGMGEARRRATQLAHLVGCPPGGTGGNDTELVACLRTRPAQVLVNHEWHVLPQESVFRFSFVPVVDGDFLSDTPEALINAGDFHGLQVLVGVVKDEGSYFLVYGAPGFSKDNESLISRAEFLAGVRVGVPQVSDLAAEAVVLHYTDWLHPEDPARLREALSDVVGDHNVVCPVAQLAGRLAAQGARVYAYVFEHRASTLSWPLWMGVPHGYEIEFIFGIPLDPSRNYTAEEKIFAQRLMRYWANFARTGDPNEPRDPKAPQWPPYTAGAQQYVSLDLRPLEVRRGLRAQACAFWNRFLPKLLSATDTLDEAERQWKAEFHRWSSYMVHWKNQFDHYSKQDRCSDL
T1 sequence (P06276 29-602): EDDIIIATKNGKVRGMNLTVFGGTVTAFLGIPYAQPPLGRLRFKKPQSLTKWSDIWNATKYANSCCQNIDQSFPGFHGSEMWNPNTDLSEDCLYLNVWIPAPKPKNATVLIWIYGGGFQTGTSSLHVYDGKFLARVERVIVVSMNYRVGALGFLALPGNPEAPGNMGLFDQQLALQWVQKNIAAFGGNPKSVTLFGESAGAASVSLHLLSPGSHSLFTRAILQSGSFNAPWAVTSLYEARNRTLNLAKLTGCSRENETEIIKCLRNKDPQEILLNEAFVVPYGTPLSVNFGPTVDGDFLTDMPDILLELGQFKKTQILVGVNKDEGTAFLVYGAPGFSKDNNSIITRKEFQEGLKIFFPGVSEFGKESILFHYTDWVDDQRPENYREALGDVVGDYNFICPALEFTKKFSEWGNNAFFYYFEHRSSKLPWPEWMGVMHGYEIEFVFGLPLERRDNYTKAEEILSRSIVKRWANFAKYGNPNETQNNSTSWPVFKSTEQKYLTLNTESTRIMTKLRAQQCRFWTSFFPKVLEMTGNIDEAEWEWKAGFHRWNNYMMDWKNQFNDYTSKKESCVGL

Turning to `COc1cccc2c1C(=O)c1c(O)c3c(c(O)c1C2=O)C[C@@](O)(C(=O)CO)C[C@@H]3O[C@H]1C[C@H](N)[C@H](O)[C@H](C)O1` [Doxorubicin, doxorubicin, reference compound], the IC50 was 2200 ± 20 nM in assay [1] (72 h exposure, SRB assay, mean ± S.D., >50 = less than 50% growth inhibition at 50 μM); 380 ± 30 nM in assay [2]; 0.18 ± 0.02 µM in assay [3] (MCF7, 72 h exposure, SRB assay, mean ± S.D., >50 = less than 50% growth inhibition at 50 μM).
Turning to `CCOc1cccc2c1O[C@]1(O)CCN(C)C[C@@H]1[C@@H]2O` (relative stereo) [7e, (4aR*,10S*,10aR*)-6-Ethoxy-2-methyl-1,2,3,4,10,10a-hexahydro-4aH-chromeno[3,2-c]pyridine-4a,10-diol], the “hBChE % inhibition at 10 μM” value at BChE from human serum is recorded as “n.i”. The “hAChE % inhibition at 10 μM” value at human recombinant AChE was “n.i”. The inhibition at 10 µM on human recombinant MAO B came out at 25%; on human recombinant MAO A it was 19%.
Regarding `CN1C=Cc2oc3ccccc3c(=O)c2C1C#Cc1ccccc1` (centres unmarked) [3a, 2-Methyl-1-(phenylethinyl)-1H-chromeno[3,2-c]pyridine-10(2H)-one], the IC50 was 8.42 ± 0.25 µM on BChE from human serum (mean ± S.D., determined for compounds with more than 60% inhibition at 10 μM, read-out: hBChE IC50); 6.79 ± 0.42 µM on human recombinant AChE (mean ± S.D., determined for compounds with more than 60% inhibition at 10 μM, read-out: hAChE IC50); 510 ± 21 nM on human recombinant MAO B (hMAO-B IC50, mean ± S.D., determined for compounds with more than 60% inhibition at 10 μM). Further, the “MAO B/A selectivity” value at human recombinant MAO B (from MAO B and MAO A inhibition data) is on record as “more than twentyfold”. Further, the inhibition at 10 µM at human recombinant MAO A came out at 35%.
Turning to `CN1CC[C@@]2(O)Oc3ccccc3[C@@H](O)[C@H]2C1` (relative stereo) [7a, (4aR*,10S*,10aR*)-2-Methyl-1,2,3,4,10,10a-hexahydro-4aH-chromeno[3,2-c]pyridine-4a,10-diol], the “hBChE % inhibition at 10 μM” value at BChE from human serum is recorded as “n.i”. For the same compound, the results for the inhibition at 10 µM at human recombinant AChE, on human recombinant MAO B and on human recombinant MAO A were 24%, 22% and 14%, respectively.
Taken in the same sequence, the figures for `CN1CCc2oc3ccccc3c(=O)c2C1` [1a, 1,2,3,4-tetrahydro-2-methylchromeno[3,2-c]pyridin-10-one] were “n.i”, 34%, 29% and 15%.
The matching figures for `CN1CC[C@@]2(O)Oc3ccc(Br)cc3[C@@H](O)[C@@H]2C1` (relative stereo) [8c, (4aR*,10S*,10aS*)-8-Bromo-2-methyl-1,2,3,4,10,10a-hexahydro-4aH-chromeno[3,2-c]pyridine-4a,10-diol]: “n.i”, 45%, 15% and 14%.
As for `CCOc1cccc2c(=O)c3c(oc12)C=CN(C(C)C)C3C#Cc1ccccc1` (centres unmarked) [3d, 6-Ethoxy-2-isopropyl-1-(phenylethynyl)-1,2-dihydro-10H-chromeno[3,2-c]pyridin-10-one], the inhibition at 10 µM on BChE from human serum turned out to be 10%; at human recombinant MAO B, 22%; at human recombinant MAO A, 36%. Further, the “hAChE % inhibition at 10 μM” value on human recombinant AChE is recorded as “n.i”.
Taken in the same sequence, the figures for `CN1CC[C@@]2(O)Oc3ccc(Br)cc3[C@@H](O)[C@H]2C1` (relative stereo) [7c, (4aR*,10S*,10aR*)-8-Bromo-2-methyl-1,2,3,4,10,10a-hexahydro-4aH-chromeno[3,2-c]pyridine-4a,10-diol] were 12%, 35%, 21% and “n.i”.
Consider `O[C@@H]1c2ccccc2O[C@]2(O)CCN(Cc3ccccc3)C[C@@H]12` (relative stereo) [8e, (4aR*,10S*,10aS*)-2-Benzyl-1,2,3,4,10,10a-hexahydro-4aH-chromeno[3,2-c]pyridine-4a,10-diol], for which the inhibition at 10 µM amounted to 19% on BChE from human serum, 25% on human recombinant AChE, 41% at human recombinant MAO B and 12% at human recombinant MAO A.
In the case of `CN1CC=C2Oc3ccc(Cl)cc3C=C2C1` [2a, 8-Chloro-2,3-dihydro-2-methyl-1H-chromeno[3,2-c]pyridine], the IC50 in assay [1] is more than 50000 nM; in assay [3] (MCF7, 72 h) it was 48.1 ± 4.21 µM; at human recombinant MAO A, 1180 ± 70 nM. In addition, the “hBChE % inhibition at 10 μM” value at BChE from human serum is on record as “n.i”. Further, the inhibition at 10 µM stood at 25% on human recombinant AChE and 45% at human recombinant MAO B. Further, the “Selectivity for MAO A over MAO B” value on human recombinant MAO A (from MAO A and MAO B inhibition data) is on record as “about tenfold”.
Regarding `CN1CC[C@@]2(O)Oc3ccccc3[C@@H](O)[C@@H]2C1` (relative stereo) [8a, (4aR*,10S*,10aS*)-2-Methyl-1,2,3,4,10,10a-hexahydro-4aH-chromeno[3,2-c]pyridine-4a,10-diol], the “hBChE % inhibition at 10 μM” value on BChE from human serum is “n.i”. The inhibition at 10 µM on human recombinant AChE came out at 22%; on human recombinant MAO B it was 42%; on human recombinant MAO A, 8%.

The values are drawn from article PMC10178506, “Chemical and Biological Evaluation of Novel 1H-Chromeno[3,2-c]pyridine Derivatives as MAO Inhibitors Endowed with Potential Anticancer Activity” (International Journal of Molecular Sciences, 2023).
